Test [1] concerns the target T1, human CB1 receptor (Homo sapiens, UniProt P21554).
T1 construct: Eurofins Discovery (contract assay)
The test can be described thus: Radioligand binding assay at human CB1 receptor ([^3H]CP55940 displacement, Eurofins Discovery). The settings on record: for Ki: Cheng Prusoff from IC50, [^3H]CP55940 radioligand, read-out: hCB1 Ki; for times more active than (−)-trans-Δ^9-THCV against CB1 receptor: comparator Δ^9-THCV (Ki 75.4 nM, literature); for times more active than (−)-trans-Δ^9-THC against CB1 receptor: comparator Δ^9-THC (Ki=40 nM, literature). How it is done:
2.2.4 Binding affinity at human CB1 and CB2 receptors. The binding affinity of (−)-trans-Δ^9-THCB against purified human CB1 and CB2 receptors was determined in a radioligand binding assay. The capability of the ligand to displace radiolabeled [^3H] […] Binding at CB1 and CB2 Receptors. The binding affinity of (−)-trans-Δ^9-THCB against human CB1 and CB2 receptors was determined in a radioligand binding assay performed by Eurofins Discovery. The compound was tested at ten concentrations, ranging from 1 nM to 30 μM, in duplicate. The compound binding was calculated as a % inhibition of the binding of a radioactively labeled ligand specific for each target. […] The results were expressed as a percent inhibition of control specific binding obtained in the presence of the tested compounds using eq. 1.
The IC50 values (concentration causing a half-maximal inhibition of control specific binding) were determined by non-linear regression analysis of the competition curves generated with mean replicate values (eq. 2)^55.
Where Y is the specific binding, A is the left asymptote of the curve, D is the right asymptote f the curve, C is the compound concentration, C50 is the IC50 value and nH is the slope factor. […] The inhibition constants (Ki) were calculated using the Cheng Prusoff equation: […]
3.1.4 Binding affinity at human CB1 and CB2 receptors. […] The binding affinity of (−)-trans-Δ^9-THCP against human CB1 and CB2 receptors was assessed by Eurofins Discovery using a radioligand binding assay. […] Eq. 1 was employed to calculate the percent inhibition of control specific binding obtained in the presence of the tested compounds.
A non-linear regression analysis of the competition curves generated with mean replicate values (eq. 2) was used to calculate the IC50 values (concentration causing a half-maximal inhibition of control specific binding)^51.
Where Y is the specific binding, A is the left asymptote of the curve, D is the right asymptote f the curve, C is the compound concentration, C50 is the IC50 value and nH is the slope factor. […] The inhibition constants (Ki) were determined using the Cheng Prusoff equation (eq. 3):
[formula] • where L is the concentration of the radioligand, and KD is the affinity of the radioligand for the receptor.

Test [2] has as its system CD-1 mice. The test can be described thus: Formalin test in mice. The class given is in vivo. The following applies: 3 mg/kg, i.p., 20 min before formalin; n=5. As for the experimental part: Formalin test in mice. Male CD-1 mice 6-8 weeks (Envigo, Italy), were housed under controlled conditions (12 h light/12 h dark cycle; temperature 20-22 C; humidity 55-60%) with chow and tap water available ad libitum. All surgeries and experimental procedures were approved by the Animal Ethics Committee of University of Campania “L. Vanvitelli” (Naples). Animal care was in compliance with Italian (D.L. 116/92) and European Commission (O.J. of E.C. L358/1 18/12/86) regulations on the protection of laboratory animals. All efforts were made to minimize animal suffering and to reduce the number of animals used. All the experiments were performed in a randomized manner by the same operator blind to pharmacological treatments. Mice weighing 28-32 g were used after 1 week-acclimation period and received formalin (1.25% in saline, 30 μL) in the dorsal surface of one side of the hind-paw. Each mouse, randomly assigned to one of the experimental groups (n=5), was placed in a plexiglass cage and allowed to move freely for 15-20 min. A mirror was placed at a 45° angle under the cage to allow full view of the hind-paws. Lifting, favoring, licking, shaking and flinching of the injected paw were recorded as nocifensive behavior.^61 The total time of the nociceptive response was measured every 5 min for 60 minutes and expressed in min (mean±SEM). Mice received vehicle (0.5% DMSO in saline) or different doses of Δ^9-THCB (2, 3 and 5 mg/kg, i.p.) 20 min before formalin injection alone or in combination with AM251 (0.5 mg/kg, i.p.) or AM630 (1 mg/kg, i.p.). The antagonists were administered 10 min before drugs injection.
Statistics for in vivo experiments. Data are represented as means±standard error of the mean (S.E.M). Statistical analysis of the data was performed by analysis of variance two-way ANOVA followed by Bonferroni post hoc or Dunnett's multiple comparison test. All statistical analyses were performed by using GraphPAD software (San Diego, California). Differences were considered significant at p<0.05.

The test system of test [3] is C57BL6/J mice. Briefly: Tetrad: hot plate test (analgesia). Format: in vivo. The settings on record: 52° C., 85 min after administration, mean±SEM. How it is done: Mice (n=4) were treated with Δ^9-THCB (10 and 20 mg/kg) or vehicle (0.9% saline and 0.05% DMSO) by intraperitoneal (i.p.) administration. Mice were evaluated for hypomotility (open field test), hypothermia (body temperature test), antinociceptive (hot plate test), and cataleptic effects (bar test), using the tetrad tests as described in the protocol by Metna-Laurent M. et al.^62 Statistical analysis was performed using the Kruskall-Wallis test and Dunn's post hoc tests.
Hotplate test. Each mouse was placed on a hot plate (Ugo Basile), which was kept at a constant temperature of 52° C. The nociceptive response (NR) was recorded as characteristic actions of the mouse like licking of the hind paws, as well as jumping. The latency to the NR was measured in sec 85 minutes after drug or vehicle administration. A 30 or 60 sec cut-off time was used in order to prevent tissue damage.
Male C57BL6/J mice (7 weeks old; n=5) were treated with Δ^9-THCP (10, 5 and 2.5 mg/kg) or vehicle (1:1:18; ethanol:Kolliphor EL:0.9% saline) by i.p. administration. Mice were evaluated for hypomotility (open field test), hypothermia (body temperature), antinociceptive (hot plate test), and cataleptic (bar test) effects, using the tetrad tests^58. Statistical analysis was performed using the Kruskall-Wallis test and Dunn's post hoc tests.
Hot plate. Changes in nociception were evaluated by the hot plate test. On the day of experiment each mouse was placed on a hot plate (Ugo Basiele) at a constant temperature of 52° C. Licking of the hind paws, as well as jumping, were considered as a nociceptive response (NR) and the latency was measured in seconds 85 minutes after drug or vehicle administration. The latency to the NR was recorded and a 30 or 60 s cut-off time was used in order to prevent tissue damage.

Structures are written as SMILES.

T1 sequence (P21554 whole entry): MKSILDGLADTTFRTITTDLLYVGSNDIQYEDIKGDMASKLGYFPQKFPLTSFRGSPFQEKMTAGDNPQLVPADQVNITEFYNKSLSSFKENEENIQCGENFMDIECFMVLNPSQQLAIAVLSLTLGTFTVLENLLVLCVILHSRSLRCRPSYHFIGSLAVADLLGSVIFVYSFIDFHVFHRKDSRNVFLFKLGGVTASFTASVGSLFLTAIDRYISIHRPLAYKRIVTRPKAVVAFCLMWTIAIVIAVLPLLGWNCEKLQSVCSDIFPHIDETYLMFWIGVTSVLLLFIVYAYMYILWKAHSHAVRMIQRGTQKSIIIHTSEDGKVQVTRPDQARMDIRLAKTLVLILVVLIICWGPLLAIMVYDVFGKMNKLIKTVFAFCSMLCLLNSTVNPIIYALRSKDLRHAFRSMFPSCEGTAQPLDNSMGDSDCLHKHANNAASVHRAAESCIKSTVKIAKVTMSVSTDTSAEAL

For `CCCCc1cc(O)c2c(c1)OC(C)(C)[C@@H]1CCC(C)=C[C@@H]21` [Δ^9-THCB, (6aR,10aR)-3-butyl-6,6,9-trimethyl-6a,7,8,10a-tetrahydro-6H-benzo[c]chromen-1-ol], the Ki in test [1] was 15 nM. In addition, the IC50 in test [1] (displacement of [^3H]CP55940, ten concentrations 1 nM to 30 μM, duplicate, SD within ±10%, read-out: hCB1 IC50) was 28 nM. Besides, the “times more active than (−)-trans-Δ^9-THCV against CB1 receptor” value in test [1] (ratio of Ki) is given as “five times more active”. The “nociceptive response in formalin test (first phase 0-7 min, second phase 15-60 min)” value in test [2] is “reduced both first and second phase of formalin test”. The “hot plate: latency to nociceptive response” value turned out to be 7.94 s in test [3] (Δ^9-THCB 10 mg/kg i.p., n=4, vehicle 10.15) and 17.50 s in test [3] (Δ^9-THCB 20 mg/kg i.p., n=4, vehicle 10.15).
`CCCCCCCc1cc(O)c2c(c1)OC(C)(C)[C@@H]1CCC(C)=C[C@@H]21` [Δ^9-THCP, (6aR,10aR)-3-heptyl-6,6,9-trimethyl-6a,7,8,10a-tetrahydro-6H-benzo[c]chromen-1-ol]: the Ki in test [1] stood at 1.2 nM. The “binding affinity to CB1 among the compounds (in words)” value in test [1] (comparison of alkyl chain homologues) is “highest binding affinity to CB1”. The “times more active than (−)-trans-Δ^9-THC against CB1 receptor” value in test [1] (ratio of Ki) is given as “more than thirty-fold higher”; in test [1] (ratio of Ki, listed as (−)-trans-Δ^9-THCP), 33 times. Moreover, in test [1] (ratio of Ki, comparator Δ^9-THCB (Ki 15 nM)), the “times more active than (−)-trans-Δ^9-THCB against CB1 receptor” value was 13 times. The “times more active than (−)-trans-Δ^9-THCV against CB1 receptor” value in test [1] (ratio of Ki) is 63 times. Besides, the “hot plate: latency to nociceptive response” value in test [3] (Δ^9-THCP 2.5 mg/kg i.p., not statistically significant, n=5, vehicle 19.20) is 40.22 s; in test [3] (Δ^9-THCP 5 mg/kg i.p., n=5, vehicle 19.20), 54.38 s; in test [3] (Δ^9-THCP 10 mg/kg i.p., n=5, vehicle 19.20), 57.0 s.

The values are drawn from patent US12606508B2, “Cannabis extracts and uses thereof” (priority 2020, dated 2026).
